Data reported in PubChem BioAssay (NCI).
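Results reflect a 48-hour exposure of cells in 96-well plates to compound at five concentrations. GI50 = concentration required for 50% inhibition of growth. TGI: total growth inhibition.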

Legend:
Experiment in all cases: DTP human tumour cell line panel, 48 h
COLO 205 colon = tested on: COLO 205 colon
NCI-H226 lung = tested on: NCI-H226 lung
MOLT-4 leukemia = tested on: MOLT-4 leukemia
HOP-92 NSCLC = tested on: HOP-92 NSCLC
SK-MEL-28 melanoma = tested on: SK-MEL-28 melanoma
OVCAR-3 ovarian = tested on: OVCAR-3 ovarian
HOP-62 NSCLC = tested on: HOP-62 NSCLC
UACC-62 melanoma = tested on: UACC-62 melanoma
HT29 colon = tested on: HT29 colon
LOX IMVI melanoma = tested on: LOX IMVI melanoma
K-562 leukemia = tested on: K-562 leukemia
HCT-116 colon = tested on: HCT-116 colon
A498 renal = tested on: A498 renal

Structure (SMILES)	TGI (COLO 205 colon) [µM]	TGI (NCI-H226 lung) [µM]	TGI (MOLT-4 leukemia) [µM]	TGI (HOP-92 NSCLC) [µM]	TGI (SK-MEL-28 melanoma) [µM]	TGI (OVCAR-3 ovarian) [µM]	TGI (HOP-62 NSCLC) [µM]	TGI (UACC-62 melanoma) [µM]	TGI (HT29 colon) [µM]	TGI (LOX IMVI melanoma) [µM]	TGI (K-562 leukemia) [µM]	TGI (HCT-116 colon) [µM]	TGI (A498 renal) [µM]	GI50 (NCI-H226 lung) [µM]	GI50 (HOP-92 NSCLC) [µM]	GI50 (SK-MEL-28 melanoma) [µM]	GI50 (HT29 colon) [µM]	GI50 (HCT-116 colon) [µM]	GI50 (A498 renal) [µM]
COC(=O)Nc1nc2ccc(Oc3ccc4nc(NC(=O)OC)[nH]c4c3)cc2[nH]1	7.59	2.72	> 32.8	> 100	> 20.4	0.744	45.6	> 100	> 100	> 100	> 45.2	> 100	> 51.4	–	–	–	–	–	–
CC1(C)CC(=O)/C(=C/C2CCNC2=S)C(=O)N1 (stereo not drawn)	> 100	> 100	> 100	> 100	> 100	> 100	> 100	> 100	> 100	> 100	> 100	> 100	> 100	–	–	–	–	–	–
NC(=O)C(c1ccccc1)N1OC2C(=O)N(Cc3ccccc3)C(=O)C2C1c1cccc(Oc2ccc(Cl)cc2)c1 (stereo not drawn)	32	> 100	98.9	> 100	> 100	43.1	> 100	32.3	35.6	34.2	99.5	44.5	> 100	–	–	–	–	–	–
CC1CC(C)[C@H](O)C([C@H](O)CC2CC(=O)N(C)C(=O)C2)C1 (stereo partly drawn)	> 100	> 100	> 100	> 100	> 100	> 100	> 100	> 100	> 100	> 100	> 100	> 100	> 100	–	–	–	–	–	–
C=C1CC(Cn2ccc(=O)[nH]c2=O)(c2ccc(-c3ccccc3)cc2)OC1=O (stereo not drawn)	0.338	13.6	5.26	2.62	5.34	4.03	40.2	1.88	3.27	1.07	1.53	0.892	16.1	–	–	–	–	–	–
Cc1c(/C=N/NC(=S)Nc2cccc(Cl)c2)c(=O)n(-c2ccccc2)n1C	> 100	33.9	> 100	31.7	> 100	–	26.9	> 100	> 100	> 100	31.5	> 100	19.9	–	–	–	–	–	–
CC12CCC([C@H](N3CCOCC3)/C1=N\OCCN1CCCC1)C2(C)C (stereo partly drawn)	> 100	> 100	> 100	> 100	> 100	> 100	> 100	> 100	> 100	> 100	> 100	> 100	> 100	–	–	–	–	–	–
COc1cc(O)c2c(=O)c(OC)c(-c3ccc4c(c3)OCO4)oc2c1	> 100	> 100	> 100	> 57.7	> 100	–	> 63.1	> 100	> 100	> 100	> 100	> 100	> 89.3	–	–	–	–	–	–
C[C@@]12c3c4ccc(C=O)c3Oc3ccc(C=O)c(c31)Oc1c(C=O)ccc(c12)O4	> 100	> 100	> 100	> 100	> 100	> 100	> 100	> 100	> 100	> 100	> 100	> 100	> 100	–	–	–	–	–	–
FC(F)(F)c1nc2ccc(SSc3ccc4nc(C(F)(F)F)[nH]c4c3)cc2[nH]1	> 100	> 100	> 100	> 100	> 100	> 100	> 100	> 100	> 100	> 100	> 100	> 100	> 100	> 100	> 100	> 100	> 100	> 100	> 100
Oc1ccc(Cl)cc1-c1[nH]c(=S)nc(-c2ccccc2)c1Cl	> 100	> 100	> 100	> 100	> 100	> 100	> 84.9	–	> 31.6	> 100	> 100	> 100	> 100	–	–	–	–	–	–
CC1=C(C(=O)N[C@@H](Cc2ccccc2)C(=O)O)N2C(=O)[C@@H](NC(=O)[C@@H](N)CC(C)C)[C@H]2SC1	> 100	> 100	> 100	> 100	> 100	> 100	–	> 100	–	> 100	> 100	–	> 100	–	–	–	–	–	–
O=S(=O)(C(=Ic1ccccc1)S(=O)(=O)C(F)(F)C(F)(F)C(F)(F)C(F)(F)F)C(F)(F)C(F)(F)C(F)(F)C(F)(F)F	21.8	15	13.8	23.1	29.4	29.3	30.7	33.4	31.4	28	16.4	–	28.6	–	–	–	–	–	–
O=C(O)c1nc2cc(C(F)(F)F)ccc2nc1Nc1ccc(Cl)c(Cl)c1	30.2	34	–	23.1	–	26.4	27.6	25	28.8	31.2	> 100	21.1	31.1	–	–	–	–	–	–
COc1cc(C2S/C(=C/c3ccccc3)C(=O)N2c2cc(Cl)ccc2Cl)cc(OC)c1OC (stereo not drawn)	> 100	> 100	> 100	> 100	> 100	> 100	> 100	> 100	> 100	36.1	> 100	28.1	> 100	–	–	–	–	–	–
COc1ccc(-c2cnoc2-c2ccc(OC)c(OC)c2)cc1OC	3.86	> 24	35.9	21.3	> 21.9	7.54	20.5	1.78	11.1	5.22	> 100	12.6	21.2	–	–	–	–	–	–
O[C@@]1(c2cccs2)c2cccc(Cl)c2[C@](O)(c2cccs2)c2cccc(Cl)c21	38.6	57.1	56.3	> 100	37.8	37.1	> 100	23.8	35.5	33.2	> 100	27.4	25.8	–	–	–	–	–	–
